Experimental data as given in patent publication US20260355199A1, “COMPOSITIONS AND METHODS FOR TREATING OR PREVENTING NONALCOHOLIC STEATOHEPATITIS (NASH), ANOREXIA, DEPRESSION, ENDOMETRIOSIS, AND OTHER DISEASES OR DISORDERS” (priority 2022, published 2026).

Legend:
TGF-β1, IL-1β, and IL-6 = experiment: TGF-β1, IL-1β and IL-6 expression in human MDMs; assay type: cell-based; conditions: TGF-β1-treated MDMs
Source text: Next, the studies examined effects of TET3 knockdown on expression of TGF-β1, IL-1β, and IL-6 in human MDMs. TGF-β1 has been mechanistically linked to the pathogenesis NSCLC, endometriosis, and NASH (Saito et al., 2018, Int J Mol Sci, 19; Young et al., 2017, Hum Reprod Update, 23:548-559; Cai et al., 2020, Cell Metab, 31:406-421; Baba et al., 2022, Front Pharmacol, 13:791272). It is also an important factor in the conditioned media responsible for inducing TET3 overexpression (FIG. 24H, FIG. 24J, and FIG. 24K through FIG. 24M). Therefore, MDMs were treated with TGF-β1 to mimic microenvironment-induced TET3 overexpression, followed by siRNA transfection and gene expression analyses. […] ELISA was not used to measure TGF-β1 because the transfection experiments were performed in the presence of exogenous TGF-β1. […]
Proinflammatory activation of peritoneal macrophages and MDMs was achieved by treatment with a combination of 10 ng/mL of LPS (Invitrogen, 00-4976-93) and 20 ng/mL of IFN-γ (R&D Systems, 485-MI-100). IL-1β and IL-6 protein levels in the supernatant of cultured mouse peritoneal macrophages were measured using ELISA kits (R&D Systems, MLB00C and M6000B-1). […]
IL-1β protein level of cell lysates and IL-6 protein level of cell supernatants were determined using the kits (Elabscience, E-EL-H0149c and E-EL-H6165, respectively) according to the manufacturer's protocols. […]

Cas9+ mice = experiment: Post-fast refeeding study with leptin; assay type: in vivo, mouse; conditions: leptin 5 mg/kg i.p.
Method: To assess leptin effects on suppression of hunger-induced appetite, female Cas9+ mice injected with AAV or AAV-sgTet3 bilaterally into the ARC were fasted overnight for 22 h. On the second day, mouse leptin (L3772-1MG, Sigma Aldrich) was administrated at 5 mg/kg intraperitoneally at 10:00 and pre-weighed food was placed in the cage and monitored for the following 24 h. For ChIP studies, Cas9+ mice injected with AAV or AAVsgTet3 bilaterally into the ARC were fasted overnight for 22 h. On the second day, saline or leptin (5 mg/kg) was administrated intraperitoneally at 10:00. Two hours later, ARCs were isolated for ChIP-qPCR analysis. To examine leptin-induced protein-protein interactions, Cas9+ mice were fasted overnight for 22 h. On the second day, leptin was administrated at 5 mg/kg intraperitoneally at 10:00, and ARCs were isolated 2 h later, followed by co-IP studies.

Molecule	TGF-β1, IL-1β, and IL-6 expression (TGF-β1, IL-1β, and IL-6)	hunger-induced appetite (Cas9+ mice; AAV control mice)	hunger-induced appetite (Cas9+ mice; TET3 knockdown (AAV-sgTet3) mice)
Nc1nc(=O)n(-c2cccc(-c3ccccc3)c2)cc1Cl [Bobcat339, 4-Amino-1-[1,1′-biphenyl]-3-yl-5-chloro-2(1H)-pyrimidinone]	able to recapitulate these effects on all three factors		
leptin: adipose hormone; mouse leptin L3772-1MG or human leptin L4146-1MG, Sigma Aldrich		suppressed hunger-induced appetite in control mice	failed to do so in TET3 knockdown animals
